Laboratory results as given in BindingDB's records for doi:10.1124/mol.64.6.1295 (Glaxosmithkline, 2003).
Structures can show the parent of a compound that is named as a salt.

Tests used:
[1] = target: 5-hydroxytryptamine receptor 6 (Rattus norvegicus, UniProt P31388)
[2] = target: 5-hydroxytryptamine receptor 6 (Mus musculus, UniProt Q9R1C8)
[3] = target: 5-hydroxytryptamine receptor 6 (Homo sapiens, UniProt P50406)
5-hydroxytryptamine receptor 6 (Homo sapiens, UniProt P50406), sequence (P50406 whole entry): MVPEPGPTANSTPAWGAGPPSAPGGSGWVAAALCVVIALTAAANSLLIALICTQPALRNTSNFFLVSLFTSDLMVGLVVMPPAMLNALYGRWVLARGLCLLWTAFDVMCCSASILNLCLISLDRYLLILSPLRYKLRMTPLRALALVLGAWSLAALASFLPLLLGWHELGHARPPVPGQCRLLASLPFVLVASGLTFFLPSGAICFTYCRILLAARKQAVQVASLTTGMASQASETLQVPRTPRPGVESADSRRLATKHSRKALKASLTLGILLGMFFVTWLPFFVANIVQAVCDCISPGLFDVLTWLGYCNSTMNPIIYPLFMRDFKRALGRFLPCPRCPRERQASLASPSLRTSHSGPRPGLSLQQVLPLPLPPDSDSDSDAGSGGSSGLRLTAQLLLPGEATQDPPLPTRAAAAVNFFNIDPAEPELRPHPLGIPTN

5-hydroxytryptamine receptor 6 (Rattus norvegicus, UniProt P31388), sequence (P31388 whole entry): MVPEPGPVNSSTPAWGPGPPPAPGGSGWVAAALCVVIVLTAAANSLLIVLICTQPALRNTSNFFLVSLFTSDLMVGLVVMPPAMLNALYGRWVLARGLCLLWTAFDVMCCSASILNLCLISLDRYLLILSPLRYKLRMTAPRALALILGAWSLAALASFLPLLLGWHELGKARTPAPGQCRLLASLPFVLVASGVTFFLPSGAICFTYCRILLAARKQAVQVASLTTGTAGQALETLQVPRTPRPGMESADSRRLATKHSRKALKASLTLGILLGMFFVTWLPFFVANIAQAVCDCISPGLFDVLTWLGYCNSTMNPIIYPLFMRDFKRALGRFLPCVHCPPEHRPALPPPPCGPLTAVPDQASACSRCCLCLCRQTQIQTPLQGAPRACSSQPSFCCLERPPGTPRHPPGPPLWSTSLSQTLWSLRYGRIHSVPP
5-hydroxytryptamine receptor 6 (Mus musculus, UniProt Q9R1C8), sequence (Q9R1C8 whole entry): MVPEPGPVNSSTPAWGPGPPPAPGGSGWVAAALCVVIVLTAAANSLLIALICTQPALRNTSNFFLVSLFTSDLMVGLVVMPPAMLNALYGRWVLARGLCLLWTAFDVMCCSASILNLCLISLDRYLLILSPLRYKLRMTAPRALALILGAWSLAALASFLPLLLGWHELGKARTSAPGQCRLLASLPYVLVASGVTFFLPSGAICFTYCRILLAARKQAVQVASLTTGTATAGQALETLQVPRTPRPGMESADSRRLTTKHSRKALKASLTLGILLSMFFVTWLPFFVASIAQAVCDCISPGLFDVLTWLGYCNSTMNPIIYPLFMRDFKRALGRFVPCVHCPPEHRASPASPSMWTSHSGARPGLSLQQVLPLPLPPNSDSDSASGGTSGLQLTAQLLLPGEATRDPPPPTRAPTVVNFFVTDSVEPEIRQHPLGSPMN

Row | Compound | Ki [1] [nM] | Ki [2] [nM] | Ki [3] [nM]
1 | COc1ccc2[nH]cc(CCN)c2c1 [tryptamine, 5-Methoxy] | 22.4 |  | 
2 | COc1ccc(NS(=O)(=O)c2ccc(Br)cc2)cc1N1CCN(C)CC1 | 4.79 | 22.9 | 2.82
3 | NCCc1c[nH]c2ccc(O)cc12 [[3H]-5-HT] | 79.4 | 95.5 | 
4 | COc1ccc(NS(=O)(=O)c2sc3ccc(Cl)cc3c2C)cc1N1CCN(C)CC1 [SB-258510] | 0.76 | 1 | 
5 | CNS(=O)(=O)Cc1ccc2[nH]cc(CCN(C)C)c2c1 [Sumax] | > 10000 | 5620 | > 10000
6 | CCN(CC)C(=O)C1C=C2c3cccc4[nH]cc(c34)CC2N(C)C1 (stereo not drawn) [NSC_3981] | 2.63 | 2.82 | 
7 | CN1CCN(C2=c3ccccc3=Nc3ccc(Cl)cc3N2)CC1 [6-chloro-10-(4-methylpiperazin-1-yl)-2,9-diazatricyclo[9.4.0.0^{3,8}]pentadeca-1,3(8),4,6,10,12,14-heptaene] |  | 6.46 | 
8 | CN(C)CCC=C1c2ccccc2CCc2ccccc21 | 182 | 89.1 | 141
9 | COc1ccc(S(=O)(=O)Nc2cc(Br)cc(F)c2Br)cc1N1CCNCC1 [N-(2,5-dibromo-3-fluorophenyl)-4-methoxy-3-(piperazin-1-yl)benzenesulfonamide] | 1.41 | 61.7 | 
10 | COc1ccc(NS(=O)(=O)c2ccc(I)cc2)cc1N1CCN(C)CC1 [SB-258585] | 2.29 | 11.2 | 
11 | CNc1cc(NS(=O)(=O)c2ccc(N)cc2)nc(NC)n1 [Ro-04-6790] | 28.8 | > 10000 | 51.3
12 | COc1ccc(NS(=O)(=O)c2sc3ccc(Cl)cc3c2C)cc1N1CCNCC1 | 0.71 | 1.23 | 
13 | CN1CCN2c3ccccc3Cc3ccccc3C2C1 (stereo not drawn) [MIANSERIN HYDROCHLORIDE] |  | 3.24 | 
14 | CSc1ccc2c(c1)C(N1CCN(C)CC1)Cc1ccccc1S2 (stereo not drawn) [methanesulfonic acid;1-methyl-4-(3-methylsulfanyl-5,6-dihydrobenzo[b][1]benzothiepin-5-yl)piperazine] |  | 0.56 | 
